{"source": "patent US20230242641A1", "about": "“SLAMF7 CARS” (JULIUS-MAXIMILIANS-UNIVERSITÄT WÜRZBURG, priority 2020, published 2023)", "key": {"MM.1S cells": {"test_system": "MM.1S cells", "conditions": "cited from earlier work"}, "CAR-T cell-induced CRS": {"test_system": "CAR-T cell-induced CRS", "conditions": "45 pediatric and adult patients; 31 patients; 95% CI: 53%-82%; cited from earlier work"}, "SLAMF7": {"test_system": "SLAMF7", "conditions": "cited from earlier work"}, "[1]": {"test_system": "CD34+ hematopoietic stem cells", "conditions": "cited from earlier work"}, "multiple myeloma": {"test_system": "multiple myeloma", "conditions": "cited from earlier work"}, "[2]": {"target": "T1, mouse SLAMF7 molecule linked to a Twin-Strep Tag (mice, UniProt Q8BHK6 23-224, limits assumed)", "T1 construct": "also called SLAMF7 of mice; not shown: Twin-Strep Tag", "experiment": "flow cytometry: LV-RP cells incubated with Twin-Strep tagged SLAMF7 of different species, stained with anti-Strep Tag antibody (FIG. 37)", "text": "SLAMF7 molecules linked to a Twin-Strep Tag were stained by an anti-Strep Tag antibody."}}, "note": "Like-named read-outs stand apart in the source and are kept apart here.", "data": [{"molecule": "N[C@@H](Cc1ccc(N(CCCl)CCCl)cc1)C(=O)O", "note": "[Melphalan]", "values": [{"measurement": "eradication of MM.1S", "setting": "MM.1S cells; after 48 hours of treatment", "result": "less than 40%"}]}, {"molecule": "tocilizumab: recombinant humanized monoclonal antibody that blocks IL-6 from binding to its receptor", "values": [{"measurement": "patients achieving a response (resolution of CRS within 14 days of the first dose)", "setting": "CAR-T cell-induced CRS", "result": 69, "unit": "%"}]}, {"molecule": "Nc1cccc2c1CN(C1CCC(=O)NC1=O)C2=O", "note": "(stereo not drawn) [Lenalidomide]", "values": [{"measurement": "eradication of MM.1S", "setting": "MM.1S cells; after 72 hours of treatment", "result": "about 40%"}]}, {"molecule": "Elotuzumab: SLAMF7-specific monoclonal antibody huLuc63", "values": [{"measurement": "eradication of MM.1S", "setting": "MM.1S cells; after 72 hours of treatment", "result": "less than 70%"}, {"measurement": "species cross-reactivity", "setting": "SLAMF7", "result": "lack of species cross-reactivity"}, {"measurement": "binding to CD34+ hematopoietic stem cells", "setting": "[1]", "result": "No binding"}, {"measurement": "interim overall survival rate", "setting": "multiple myeloma; after three years", "result": 60, "unit": "%"}, {"measurement": "rate of progression-free survival", "setting": "multiple myeloma; at one year after beginning of treatment, elotuzumab group vs control group (only Lenalidomid and dexmethason)", "result": 68, "unit": "%"}, {"measurement": "infection rate compared to the control group", "setting": "multiple myeloma; in vivo", "result": "No significant increase in the infection rate"}, {"measurement": "lymphocyte reduction after the initial infusion", "setting": "multiple myeloma; in vivo", "result": 77, "unit": "%"}]}, {"molecule": "CC(C)C[C@H](NC(=O)[C@H](Cc1ccccc1)NC(=O)c1cnccn1)B(O)O", "note": "[Bortezomib]", "values": [{"measurement": "eradication of MM.1S", "setting": "MM.1S cells; after 72 hours of treatment", "result": "less than 30%"}]}, {"molecule": "SLAMF7 binding chimeric antigen receptor (CAR) polypeptide, expressed on human T cells (other, also called SLAMF7 CAR; SLAMF7-CAR) EVQLVESGGGLVQPGGSLRLSCAASGFDFSRYWMSWVRQAPGKGLEWIGEINPDSSTINYAPSLKDKFIISRDNAKNSLYLQMNSLRAEDTAVYYCARPDGNYWYFDVWGQGTLVTVSSGGGGSGGGGSGGGGSDIQMTQSPSSLSASVGDRVTITCKASQDVGIAVAWYQQKPGKVPKLLIYWASTRHTGVPDRFSGSGSGTDFTLTISSLQPEDVATYYCQQYSSYPYTFGQGTKVEIKESKYGPPCPPCPAPPVAGPSVFLFPPKPKDTLMISRTPEVTCVVVDVSQEDPEVQFNWYVDGVEVHNAKTKPREEQFQSTYRVVSVLTVLHQDWLNGKEYKCKVSNKGLPSSIEKTISKAKGQPREPQVYTLPPSQEEMTKNQVSLTCLVKGFYPSDIAVEWESNGQPENNYKTTPPVLDSDGSFFLYSRLTVDKSRWQEGNVFSCSVMHEALHNHYTQKSLSLSLGKMFWVLVVVGGVLACYSLLVTVAFIIFWVRSKRSRGGHSDYMNMTPRRPGPTRKHYQPYAPPRDFAAYRSRVKFSRSADAPAYQQGQNQLYNELNLGRREEYDVLDKRRGRDPEMGGKPRRKNPQEGLYNELQKDKMAEAYSEIGMKGERRRGKGHDGLYQGLSTATKDTYDALHMQALPPR", "values": [{"measurement": "binding result", "setting": "[2]", "result": "no binding"}]}]}
